In patent US20210284668A1, “GOLD (I)-PHOSPHINE 1,2,3-TRIAZOLE DERIVATIVES WITH ANTIBIOTIC PROPERTIES” (Centre National de la Recherche Scientifique, priority 2018, published 2021):
“And” between values parts separate entries of the source, which are not always exact repeats. Equal entries are not always repeated.

Columns and labels:
[1] = tested on: panel of Gram-positive and Gram-negative strains; assay: Antibacterial profile on the selected panel of strains; type: cell-based; conditions: for antimicrobial / antibacterial activity (in words): summary of Tables 1-12
In short: (§1)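 MICs determined in duplicate by CLSI broth microdilution (M07-A10) in Mueller-Hinton broth. S. aureus ATCC700699: MecA positive, glycopeptide resistant; S. epidermidis ATCC35984: MecA positive; E. coli ATCC25922: wild-type. Panel spans Gram-positive and Gram-negative strains from wild-type to multi-drug resistant.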

S. aureus ATCC25923 = assay: MIC by microdilution, S. aureus ATCC25923; type: cell-based, Staphylococcus aureus; conditions: S. aureus ATCC25923 (MecA negative, wild-type), Mueller-Hinton broth, in duplicate
In short: (§2)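 Broth microdilution per CLSI document M07-A10, Mueller-Hinton medium, each MIC run in duplicate. Strains include E. coli ATCC25922 (wild-type), S. epidermidis ATCC35984 (MecA positive) and S. aureus ATCC700699 (MecA positive, glycopeptide resistant), within a mixed panel of susceptible and resistant Gram-positive/Gram-negative bacteria.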

E. faecalis UCN41 = assay: MIC by microdilution, E. faecalis UCN41; type: cell-based, Enterococcus faecalis; set-up: unit not given here; conditions: E. faecalis UCN41 (VanA positive, glycopeptide resistant), in duplicate
In short: as §2

S. epidermidis ATCC35984 = assay: MIC by microdilution, S. epidermidis ATCC35984; type: cell-based, Staphylococcus epidermidis; conditions: S. epidermidis ATCC35984 (MecA positive), in duplicate
In short: as §1

S. epidermidis ATCC14990 = assay: MIC by microdilution, S. epidermidis ATCC14990; type: cell-based, Staphylococcus epidermidis; conditions: S. epidermidis ATCC14990 (MecA negative, wild-type), in duplicate
In short: as §1

S. aureus ST20131365 = assay: MIC by microdilution, S. aureus ST20131365; type: cell-based, Staphylococcus aureus; conditions: S. aureus ST20131365 (MecA positive, glycopeptide resistant), in duplicate
In short: as §1

S. aureus ATCC29213 = assay: MIC by microdilution, S. aureus ATCC29213; type: cell-based, Staphylococcus aureus; conditions: S. aureus ATCC29213 (MecA negative, wild-type), Mueller-Hinton broth, in duplicate
In short: as §2

E. faecium BM4147 = assay: MIC by microdilution, E. faecium BM4147; type: cell-based, Enterococcus faecium; set-up: unit not given here; conditions: E. faecium BM4147 (VanA positive, glycopeptide resistant), in duplicate
In short: as §2

E. coli ATCC25922 = assay: MIC by microdilution, E. coli ATCC25922; type: cell-based, Escherichia coli; conditions: E. coli ATCC25922 (wild-type), in duplicate
In short: as §1

S. aureus ATCC700699 = assay: MIC by microdilution, S. aureus ATCC700699; type: cell-based, Staphylococcus aureus; set-up: unit not given here; conditions: S. aureus ATCC700699 (MecA positive, glycopeptide resistant), in duplicate
In short: as §1

E. faecium ATCC19434T = assay: MIC by microdilution, E. faecium ATCC19434T; type: cell-based, Enterococcus faecium; set-up: unit not given here; conditions: E. faecium ATCC19434T (wild-type), in duplicate
In short: as §2

E. faecalis JH2-2 = assay: MIC by microdilution, E. faecalis JH2-2; type: cell-based, Enterococcus faecalis; set-up: unit not given here; conditions: E. faecalis JH2-2 (wild-type), in duplicate
In short: as §2

human hepatocyte = assay: Human hepatocyte cytotoxicity profile; type: cell-based; conditions: human hepatocytes
Procedure: FIG. 1 is a diagram representing the TMB3 human hepatocyte cytotoxicity between 7 to 25 μM (FIG. 1 A) and the ampicillin human hepatocyte cytotoxicity between 7 to 25 μM (control) (FIG. 1B. In the diagram, the abscissa represents the concentration in Log per μM and the ordinate the viability of the cells in percentage compared to the human hepatocyte culture without ampicillin trihydrate or TMB3.
The human hepatocyte cytotoxicity profile has been evaluated between 7 and 25 μM for TMB derivatives as a toxicity appeared from 25 μM for the initial hit TMB3 during a preliminary assessment.

E. faecium AUS0004 = assay: MIC by microdilution, E. faecium AUS0004; type: cell-based, Enterococcus faecium; conditions: E. faecium AUS0004 (VanB positive, glycopeptide resistant), in duplicate
In short: as §2

E. faecalis V583 = assay: MIC by microdilution, E. faecalis V583; type: cell-based, Enterococcus faecalis; conditions: E. faecalis V583 (VanB positive, glycopeptide resistant), in duplicate
In short: as §1

[2] = tested on: Clostridium difficile ATCC700057; assay: MIC by microdilution, Clostridium difficile; type: cell-based; conditions: strain ATCC70057 [sic] (Tables 1-2) / ATCC700057 (Tables 3-10), in duplicate
[3] = tested on: S. epidermidis ST20150446; assay: MIC by microdilution, S. epidermidis ST20150446; type: cell-based, Staphylococcus epidermidis; conditions: S. epidermidis ST20150446 (MecA positive, glycopeptide resistant), in duplicate
In short: as §2

[4] = tested on: S. epidermidis ST20140436; assay: MIC by microdilution, S. epidermidis ST20140436; type: cell-based, Staphylococcus epidermidis; conditions: S. epidermidis ST20140436 (MecA positive, glycopeptide resistant), in duplicate
In short: as §2

| Structure (SMILES) | MICs measured, as range of concentrations ([1]; depending on the bacteria strains) | antimicrobial / antibacterial activity (in words) [1] | Minimal Inhibitory Concentration (MIC) (S. aureus ATCC25923) | Minimal Inhibitory Concentration (MIC) (E. faecalis UCN41) | Minimal Inhibitory Concentration (MIC) (S. epidermidis ATCC35984) | Minimal Inhibitory Concentration (MIC) (S. epidermidis ATCC14990) | Minimal Inhibitory Concentration (MIC) (S. aureus ST20131365) | Minimal Inhibitory Concentration (MIC) (S. aureus ATCC29213) | Minimal Inhibitory Concentration (MIC) (E. faecium BM4147) | Minimal Inhibitory Concentration (MIC) (E. coli ATCC25922) | Minimal Inhibitory Concentration (MIC) (S. aureus ATCC700699) | Minimal Inhibitory Concentration (MIC) (E. faecium ATCC19434T) | Minimal Inhibitory Concentration (MIC) (E. faecalis JH2-2) | concentration at which cytotoxicity appears (human hepatocyte; evaluated between 7 and 25 μM) | concentration from which toxicity appeared (human hepatocyte; preliminary assessment) | Minimal Inhibitory Concentration (MIC) (E. faecium AUS0004) | Minimal Inhibitory Concentration (MIC) (E. faecalis V583) | Minimal Inhibitory Concentration (MIC) [2] | Minimal Inhibitory Concentration (MIC) [3] | Minimal Inhibitory Concentration (MIC) [4] |
| --- | --- | --- | --- | --- | --- | --- | --- | --- | --- | --- | --- | --- | --- | --- | --- | --- | --- | --- | --- | --- |
| CC[P+](CC)(CC)[Au-][c]1nn[nH]c1COC(=O)NC(C(=O)NC1C(=O)N2C1SC(C)(C)C2C(=O)O)c1ccccc1 (stereo not shown) [TMB3] | 0.08 to 0.63 µM | have antimicrobial activity | 0.125 and 0.25 | 1 and 0.5 | ≤0.06 | ≤0.06 | 0.125 and 0.25 | 0.125 and 0.25 | 2 and 1 | >8 | 0.125 and 0.25 | 1 and 0.5 | 0.5 and 1 | 20 µM | 25 µM | 1 | 1 | – | – | – |
| CC[P+](CC)(CC)[Au-][c]1nn[nH]c1COC(=O)N[C@H](Cc1c[nH]c2ccccc12)C(=O)O [TMB30] | – | have antimicrobial activity | 0.25 | 0.5 | ≤0.06 | ≤0.06 | 0.25 | 0.25 | 1 | >8 | 0.25 | 0.5 | 0.5 | – | – | 1 | 0.5 | 0.125 | 0.125 | 0.125 |
| CC[P+](CC)(CC)[Au-][c]1nn[nH]c1CN1CCN(C)CC1 [TMB33] | – | have antimicrobial activity | 0.125 | 1 | ≤0.06 | ≤0.06 | 0.25 | 0.25 | 0.5 | >8 | 0.25 | 0.25 | 0.25 | – | – | 0.5 | 0.5 | ≤0.06 | 0.25 | 0.25 |
| CC[P+](CC)(CC)[Au-][c]1nn[nH]c1CCCO [TMB34] | – | have antimicrobial activity | ≤0.06 | 0.125 | ≤0.06 | ≤0.06 | ≤0.06 | ≤0.06 | 0.125 | >8 | ≤0.06 | 0.125 | 0.125 | – | – | 0.125 | 0.125 | ≤0.06 | ≤0.06 | ≤0.06 |
| CC[P+](CC)(CC)[Au-][c]1nn[nH]c1CC(N)C(=O)O (stereo not shown) [TMB37] | – | have antimicrobial activity | 0.125 | 0.5 | ≤0.06 | ≤0.06 | 0.25 | 0.125 and 0.25 | 0.5 | >8 | 0.25 | 0.5 | 0.5 | – | – | 0.5 | 0.5 | ≤0.06 | 0.125 | 0.125 |
